Data: the NIST ThermoML archive (doi:10.1016/j.tca.2006.03.023)
± gives the expanded uncertainty stated by the source.

Details: 298 K; 101.33 kPa; Crystal; X-ray diffraction

Compound	mass density [kg/m3]
O=P([O-])([O-])[O-].[Eu+3] [europium phosphate]	1476 ± 2
O=P([O-])([O-])[O-].[Sm+3] [samarium phosphate]	1428 ± 2
